IC50 data for 13 molecules are collected here from patent US12398154B2, “Azaquinazoline pan-KRas inhibitors” (Mirati Therapeutics, Inc., priority 2020, dated 2025).

The target of experiment [1] is KRas G12R (Homo sapiens, UniProt P01116, G12R). Description: biochemical.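 Further: TR-FRET displacement assay of compound binding to KRas, read after one hour at room temperature, potency from a four-parameter fit of percent-of-control values.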
Description: (§1) The ability of a compound to bind to KRas was measured using a TR-FRET displacement assay. […] After a 60-minute incubation at room temperature, the reaction was measured using a BMG LABTECH CLARIO star Plus via TR-FRET. […] The POC values were fit to a 4-parameter IC50 equation and the IC50 value reported.
Experiment [2] has as its target KRas G12V (Homo sapiens, UniProt P01116, G12V). In words: biochemical.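 Further: KRas binding measured by TR-FRET displacement at room temperature, IC50 fitted from percent of control values.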
Description: as §1
Experiment [3] concerns the target KRas G12C (Homo sapiens, UniProt P01116, G12C). In words: biochemical.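 Further: binding to KRas assessed by TR-FRET displacement after one hour incubation at room temperature, potency fitted from percent-of-control values.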
Description: as §1
For experiment [4], the target named is KRas G12D (Homo sapiens, UniProt P01116, G12D). Description: biochemical.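 Further: TR-FRET displacement binding assay on KRas, read after a one-hour incubation at room temperature, IC50 fitted from percent-of-control values.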
Description: as §1
For experiment [5], the target named is KRas G12A (Homo sapiens, UniProt P01116, G12A). Description: biochemical.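 Further: binding to KRas measured by TR-FRET displacement after one hour at room temperature, IC50 from a four-parameter fit of percent-of-control values.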
Description: as §1
The target in experiment [6] is T1, KRas Q61H (Homo sapiens, UniProt P01116, Q61H).
T1 construct: Biotinylated KRas (corresponding to amino acids 1-169, produced at Accelegan Inc.); biotin (biotinylated); purchased Accelegan Inc
In words: KRas binding assay (TR-FRET displacement). For orientation: TR-FRET usually uses a lanthanide donor and a delayed reading to cut background.
Description: as §1

Experiment [7] deals with KRas G12S (Homo sapiens, UniProt P01116, G12S). In words: biochemical.
Description: as §1
The target of experiment [8] is T2, KRas G13D (Homo sapiens, UniProt P01116, G13D).
T2 construct: Biotinylated KRas (corresponding to amino acids 1-169, produced at Accelegan Inc.); biotin (biotinylated); purchased Accelegan Inc
Description: KRas binding assay (TR-FRET displacement).
Description: as §1

Experiment [9] deals with KRas WT (Homo sapiens, UniProt P01116). In words: biochemical.
KRas WT, sequence (P01116 1-169 isoform P01116-2): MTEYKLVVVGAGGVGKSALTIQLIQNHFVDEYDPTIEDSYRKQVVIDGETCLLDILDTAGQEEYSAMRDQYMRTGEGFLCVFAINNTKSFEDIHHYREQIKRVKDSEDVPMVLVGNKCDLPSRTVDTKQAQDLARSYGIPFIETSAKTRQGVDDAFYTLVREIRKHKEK
Description: as §1

KRas G12C, sequence (P01116 1-169 isoform P01116-2 G12C): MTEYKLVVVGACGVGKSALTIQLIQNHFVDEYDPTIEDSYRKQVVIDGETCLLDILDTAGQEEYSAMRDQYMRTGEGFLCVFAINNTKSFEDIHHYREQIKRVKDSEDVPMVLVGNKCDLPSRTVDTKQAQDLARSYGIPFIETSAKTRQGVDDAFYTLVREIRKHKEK
KRas G12D, sequence (P01116 1-169 isoform P01116-2 G12D): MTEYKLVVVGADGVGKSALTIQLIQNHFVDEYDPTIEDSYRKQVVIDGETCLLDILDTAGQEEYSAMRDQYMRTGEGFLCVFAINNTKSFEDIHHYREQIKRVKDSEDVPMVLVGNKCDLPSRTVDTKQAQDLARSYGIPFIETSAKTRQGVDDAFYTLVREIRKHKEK
KRas G12A, sequence (P01116 1-169 isoform P01116-2 G12A): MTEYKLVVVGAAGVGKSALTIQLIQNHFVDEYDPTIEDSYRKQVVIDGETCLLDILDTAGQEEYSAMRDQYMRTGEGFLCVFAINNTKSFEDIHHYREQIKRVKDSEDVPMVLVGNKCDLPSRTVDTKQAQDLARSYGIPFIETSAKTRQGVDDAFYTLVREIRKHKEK
T1 sequence (P01116 1-169 isoform P01116-2 Q61H): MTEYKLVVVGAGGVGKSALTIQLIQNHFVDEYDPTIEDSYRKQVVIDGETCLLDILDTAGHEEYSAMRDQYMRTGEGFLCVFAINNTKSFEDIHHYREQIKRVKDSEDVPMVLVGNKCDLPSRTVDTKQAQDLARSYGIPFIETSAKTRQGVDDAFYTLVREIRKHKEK
KRas G12S, sequence (P01116 1-169 isoform P01116-2 G12S): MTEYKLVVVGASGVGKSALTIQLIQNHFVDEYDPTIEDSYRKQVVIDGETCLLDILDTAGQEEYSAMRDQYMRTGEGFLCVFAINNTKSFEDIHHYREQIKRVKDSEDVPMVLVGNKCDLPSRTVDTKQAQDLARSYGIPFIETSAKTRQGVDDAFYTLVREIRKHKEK
KRas G12R, sequence (P01116 1-169 isoform P01116-2 G12R): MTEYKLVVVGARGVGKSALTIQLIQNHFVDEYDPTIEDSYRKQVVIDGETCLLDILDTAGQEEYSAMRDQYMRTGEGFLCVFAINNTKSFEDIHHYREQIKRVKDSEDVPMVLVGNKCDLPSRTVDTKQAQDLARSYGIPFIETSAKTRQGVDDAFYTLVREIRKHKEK
KRas G12V, sequence (P01116 1-169 isoform P01116-2 G12V): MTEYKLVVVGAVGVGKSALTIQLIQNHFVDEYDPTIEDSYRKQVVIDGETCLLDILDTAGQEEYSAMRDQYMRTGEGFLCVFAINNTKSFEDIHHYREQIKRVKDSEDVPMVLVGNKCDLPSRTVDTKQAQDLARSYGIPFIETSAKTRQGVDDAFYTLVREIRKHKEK
T2 sequence (P01116 1-169 isoform P01116-2 G13D): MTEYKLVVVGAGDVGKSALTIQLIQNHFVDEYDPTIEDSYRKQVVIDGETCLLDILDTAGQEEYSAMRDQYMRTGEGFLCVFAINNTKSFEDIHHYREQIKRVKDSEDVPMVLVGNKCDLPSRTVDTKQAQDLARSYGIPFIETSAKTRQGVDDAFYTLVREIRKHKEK

For orientation: IC50 means the concentration needed to halve the response being measured. A low value points to higher potency. For `Fc1c(-c2cccc3cccc(F)c23)ncc2c(NCCCc3cccnc3)nc(OCC34CCCN3CCC4)nc12` [Example 124, 8-fluoro-7-(8-fluoronaphthalen-1-yl)-N-(3-(pyridin-3-yl)propyl)-2-((tetrahydro-1H-pyrrolizin-7a(5H)-yl)methoxy)pyrido[4,3-d]pyrimidin-4-amine], the IC50 in experiment [1] was 2.19 µM; in experiment [2], 1.51 µM; in experiment [3], 1.48 µM; in experiment [4], 12.6 µM; in experiment [5] it was 2.07 µM; in [6], 7140 nM. Moreover, the IC50 was determined as 3.87 µM in [7], 7820 nM in [8] and 7.02 µM in experiment [9].
For the molecule `Fc1c(-c2cccc3cccc(F)c23)ncc2c(NCc3ccc4nonc4c3)nc(OCC34CCCN3CCC4)nc12` [Example 125, N-(benzo[c][1,2,5]oxadiazol-5-ylmethyl)-8-fluoro-7-(8-fluoronaphthalen-1-yl)-2-((tetrahydro-1H-pyrrolizin-7a(5H)-yl)methoxy)pyrido[4,3-d]pyrimidin-4-amine], the IC50 in experiment [1] is 4.39 µM; in experiment [2], 3.92 µM; in [3], 4.25 µM; in experiment [4], 60.4 µM; in experiment [5], 5.52 µM; in [6] it was 39000 nM. In addition, the IC50 in experiment [7] was 7.42 µM; in experiment [8] it was 29100 nM; in experiment [9], 13.3 µM.
On to `Nc1cc2n(n1)CCN(c1nc(OCC34CCCN3CCC4)nc3c(F)c(-c4cccc5cccc(F)c45)ncc13)C2` [Example 126, 5-(8-fluoro-7-(8-fluoronaphthalen-1-yl)-2-((tetrahydro-1H-pyrrolizin-7a(5H)-yl)methoxy)pyrido[4,3-d]pyrimidin-4-yl)-4,5,6,7-tetrahydropyrazolo[1,5-a]pyrazin-2-amine], for which the IC50 is 18.4 µM in experiment [1]; at least 100 µM in [2]; 9.29 µM in [3]; 67.3 µM in experiment [4]; 13.8 µM in [5]; 7500 nM in experiment [6]. Besides, the IC50 worked out at 3.97 µM in experiment [7], 7290 nM in [8] and 5.97 µM in [9].
For the molecule `O=S1(=O)CC(CNc2nc(OCC34CCCN3CCC4)nc3c(F)c(-c4cccc5cccc(F)c45)ncc23)C1` [Example 127, 3-(((8-fluoro-7-(8-fluoronaphthalen-1-yl)-2-((tetrahydro-1H-pyrrolizin-7a(5H)-yl)methoxy)pyrido[4,3-d]pyrimidin-4-yl)amino)methyl)thietane 1,1-dioxide], the IC50 in experiment [1] was 2.58 µM; in [2], 1.7 µM; in [3] it was 2.19 µM; in [4] it was 25.1 µM; in experiment [5], 2.68 µM; in experiment [6], 11100 nM. The IC50 amounted to 1.72 µM in experiment [7], 8700 nM in experiment [8] and 4.22 µM in [9].
Turning to `O=S1(=O)CC[C@H](CNc2nc(OCC34CCCN3CCC4)nc3c(F)c(-c4cccc5cccc(F)c45)ncc23)N1` [Example 128, (R)-3-(((8-fluoro-7-(8-fluoronaphthalen-1-yl)-2-((tetrahydro-1H-pyrrolizin-7a(5H)-yl)methoxy)pyrido[4,3-d]pyrimidin-4-yl)amino)methyl)isothiazolidine 1,1-dioxide], the IC50 in experiment [1] came to 4.14 µM; in [2], 8.79 µM; in experiment [3], 9.57 µM; in [4], 49 µM; in [5], 11.5 µM; in experiment [6] it was 18400 nM. In addition, the IC50 in [7] worked out at 7.8 µM; in experiment [8], 13400 nM; in experiment [9], 12.8 µM.
Turning to `OC1CCCN(c2nc(OCC34CCCN3CCC4)nc3c(F)c(-c4cccc5cccc(F)c45)ncc23)CC1` (stereo not drawn) [Example 129, 1-(8-fluoro-7-(8-fluoronaphthalen-1-yl)-2-((tetrahydro-1H-pyrrolizin-7a(5H)-yl)methoxy)pyrido[4,3-d]pyrimidin-4-yl)azepan-4-ol], the IC50 in [1] turned out to be 4.43 µM; in experiment [2], 2.79 µM; in experiment [3], 2.53 µM; in experiment [4] it was 2.26 µM; in experiment [5], 2.69 µM; in experiment [6], 4360 nM. For the same molecule, the values for the IC50 in experiment [7], in [8] and in [9] were 2.79 µM, 2500 nM and 3.11 µM, respectively.
`OCC1CCCCN(c2nc(OCC34CCCN3CCC4)nc3c(F)c(-c4cccc5cccc(F)c45)ncc23)C1` (stereo not drawn) [Example 130, (1-(8-fluoro-7-(8-fluoronaphthalen-1-yl)-2-((tetrahydro-1H-pyrrolizin-7a(5H)-yl)methoxy)pyrido[4,3-d]pyrimidin-4-yl)azepan-3-yl)methanol]: the IC50 in [1] stood at 18.3 µM; in experiment [2], 10.8 µM; in [3], 9.08 µM; in experiment [4] it was 8.36 µM; in experiment [5], 10.5 µM; in experiment [6], 21900 nM. Moreover, the IC50 in experiment [7] turned out to be 14.2 µM; in experiment [8] it was 25800 nM; in [9] it was 11.4 µM.
Turning to `Fc1c(-c2cccc3cccc(F)c23)ncc2c(N3CCCC(c4cc[nH]n4)C3)nc(OCC34CCCN3CCC4)nc12` (stereo not drawn) [Example 131, 4-(3-(1H-pyrazol-3-yl)piperidin-1-yl)-8-fluoro-7-(8-fluoronaphthalen-1-yl)-2-((tetrahydro-1H-pyrrolizin-7a(5H)-yl)methoxy)pyrido[4,3-d]pyrimidine], the IC50 is 2.79 µM in experiment [1]; 8.3 µM in [2]; 3.45 µM in experiment [3]; 14.6 µM in experiment [4]; 4.46 µM in experiment [5]; 7690 nM in experiment [6]. Moreover, the results for the IC50 in experiment [7], in [8] and in experiment [9] were 9.29 µM, 6560 nM and 8.21 µM, respectively.
For the molecule `Cc1cc2[nH]ncc2c(-c2ncc3c(N4CCCC(C)(O)C4)nc(OCC45CCCN4CCC5)nc3c2F)c1C1CC1` (stereo not drawn) [Example 144, 1-(7-(5-cyclopropyl-6-methyl-1H-indazol-4-yl)-8-fluoro-2-((tetrahydro-1H-pyrrolizin-7a(5H)-yl)methoxy)pyrido[4,3-d]pyrimidin-4-yl)-3-methylpiperidin-3-ol], the half-inhibitory concentration (IC50) in experiment [1] turned out to be 0.096 µM; in experiment [2] it was 0.048 µM; in experiment [3], 0.077 µM; in experiment [4], 0.043 µM; in [5], 0.071 µM; in experiment [6] it was 82 nM. For the same molecule, the IC50 in experiment [7] amounted to 0.065 µM; in experiment [8], 60 nM; in experiment [9], 0.074 µM.
For `O=C1NC(=O)C2(CCCN(c3nc(OCC45CCCN4CCC5)nc4c(F)c(-c5cccc6cccc(F)c56)ncc34)C2)N1` (stereo not drawn) [Example 158, 7-(8-fluoro-7-(8-fluoronaphthalen-1-yl)-2-((hexahydro-1H-pyrrolizin-7a-yl)methoxy)pyrido[4,3-d]pyrimidin-4-yl)-1,3,7-triazaspiro[4.5]decane-2,4-dione], the IC50 worked out at 0.081 µM in experiment [1]; 0.078 µM in experiment [2]; 0.041 µM in experiment [3]; 0.152 µM in experiment [4]; 0.085 µM in experiment [5]; 102 nM in experiment [6]. The IC50 was determined as 0.069 µM in experiment [7], 83 nM in experiment [8] and 0.103 µM in experiment [9].
Consider `CCc1cccc2cccc(-c3ncc4c(NCc5cccnc5N)nc(OCC56CCCN5CCC6)nc4c3F)c12` [Example 204, N-((2-aminopyridin-3-yl)methyl)-7-(8-ethylnaphthalen-1-yl)-8-fluoro-2-((hexahydro-1H-pyrrolizin-7a-yl)methoxy)pyrido[4,3-d]pyrimidin-4-amine], for which the IC50 is 0.021 µM in experiment [1]; 0.043 µM in [2]; 0.02 µM in [3]; 1.29 µM in experiment [4]; 0.038 µM in experiment [5]; 283 nM in experiment [6]. For the same molecule, the results for the IC50 in experiment [7], in experiment [8] and in [9] were 0.051 µM, 317 nM and 0.233 µM, respectively.
For `CCc1cccc2cccc(-c3ncc4c(NCc5c[nH]c6ncccc56)nc(OCC56CCCN5CCC6)nc4c3F)c12` [Example 205, N-((1H-pyrrolo[2,3-b]pyridin-3-yl)methyl)-7-(8-ethylnaphthalen-1-yl)-8-fluoro-2-((hexahydro-1H-pyrrolizin-7a-yl)methoxy)pyrido[4,3-d]pyrimidin-4-amine], the IC50 in experiment [1] was found to be 0.007 µM; in [2], 0.008 µM; in [3] it was 0.01 µM; in [4], 0.307 µM; in experiment [5], 0.013 µM; in experiment [6] it was 95 nM. Also, the IC50 was 0.016 µM in [7], 69 nM in [8] and 0.08 µM in [9].
As to `Fc1c(-c2cccc3cccc(F)c23)ncc2c(OCCCc3cccnc3)nc(OCC34CCCN3CCC4)nc12` [Example 207, 8-fluoro-7-(8-fluoronaphthalen-1-yl)-4-(3-(pyridin-3-yl)propoxy)-2-((tetrahydro-1H-pyrrolizin-7a(5H)-yl)methoxy)pyrido[4,3-d]pyrimidine], the IC50 in [1] was 13.1 µM; in experiment [2], 6.17 µM; in experiment [3], 11.8 µM; in [4], 17.3 µM; in [5], 18.1 µM; in experiment [6], 46400 nM. Also, the IC50 was 46.2 µM in experiment [7], 30400 nM in experiment [8] and 26.7 µM in experiment [9].
